Experimental data as given in patent US10087156B2, “Methods and compositions related to retinoid receptor-selective pathway” (Sanford Burnham Prebys Medical Discovery Institute, priority 2010, dated 2018).

Experiments:
RXRα/Δ80 tumor = RXRα/Δ80 tumor growth in animals; assay type: in vivo; conditions: mice, 60 mg/kg intraperitoneally, two weeks
Method: Mice (n=6) were treated intraperitoneally with corn oil, Sulindac (60 mg/kg), or K-80003 (60 mg/kg) for two weeks. Tumors were removed and measured. […] Together, the RXRα-selective Sulindac analog K-80003 is a potent inhibitor of RXRα-mediated PI3K/AKT signaling and cancer cell growth.

RXRα LBD = RXRα LBD (Homo sapiens, UniProt P19793); assay: 19F NMR binding assay; conditions: 100 μM compound, 10 μM RXRα LBD
Sequence of RXRα LBD (P19793 227-458 limits assumed): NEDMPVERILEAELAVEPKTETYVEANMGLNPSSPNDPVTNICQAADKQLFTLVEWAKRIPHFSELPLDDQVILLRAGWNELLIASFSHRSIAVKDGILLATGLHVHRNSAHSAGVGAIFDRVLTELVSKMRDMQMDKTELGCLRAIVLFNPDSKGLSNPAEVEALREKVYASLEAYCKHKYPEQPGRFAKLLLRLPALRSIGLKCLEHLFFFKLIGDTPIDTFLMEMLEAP

AKT [1] = assay: Retinoic acid-induced AKT activation by immunoblotting; assay type: cell-based; conditions: 50 μM each, Caco-2 and MEF cells
Method: MEF and Caco-2 cells were starved overnight and pretreated with Sulindac for 30 min before exposure to all-trans-retinoic acid (ATRA) (10^−7 M) for 30 min and analyzed for AKT activation (FIG. 12B).
Caco-2 and MEF cells were treated with the indicated concentration of Sulindac or K-80003 for 30 min, then stimulated with all-trans-RA (10^−7 M) for 15 min. AKT activation was analyzed by immunoblotting.

[2] = biological target: T1, RXRα homodimer and heterodimer (Homo sapiens, UniProt P19793); assay: (TREpal)2-tk-CAT and βRARE-tk-CAT reporter assays in CV-1 cells; assay type: cell-based; conditions: SR11237 10^−6 M
T1 construct: expressed in transfected cells; host or cells: CV-1 green monkey kidney cells
T1 sequence (P19793 whole entry, one chain of several): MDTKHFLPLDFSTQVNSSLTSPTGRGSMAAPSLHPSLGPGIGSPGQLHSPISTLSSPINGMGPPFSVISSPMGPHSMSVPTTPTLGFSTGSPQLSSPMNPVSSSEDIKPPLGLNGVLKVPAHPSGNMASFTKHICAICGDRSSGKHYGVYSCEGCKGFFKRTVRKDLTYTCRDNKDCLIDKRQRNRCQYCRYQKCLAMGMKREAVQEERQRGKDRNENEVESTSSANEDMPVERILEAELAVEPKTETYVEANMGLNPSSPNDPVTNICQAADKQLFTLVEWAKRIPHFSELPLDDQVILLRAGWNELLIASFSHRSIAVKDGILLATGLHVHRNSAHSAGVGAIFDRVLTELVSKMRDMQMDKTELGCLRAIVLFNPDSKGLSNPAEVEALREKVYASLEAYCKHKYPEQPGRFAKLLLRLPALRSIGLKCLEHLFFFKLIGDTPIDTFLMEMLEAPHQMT
Method: Nur77 and/or RXRα were transiently transfected into CV-1 cells. Cells were treated with or without SR11237 (10^−6 M), a RXR-selective agonist, in the presence or absence of Sulindac. (TREpal)2-tk-CAT (Zhang et al., Nature 358, 587-591 (1992a)) (FIG. 1E) and βRARE-tk-CAT (Zhang et al., Nature 355, 441-446 (1992b)) (FIG. 1F) CAT activity were determined.
(§1) Cells (1×10^5 cells/well) seeded in 24-well plates were transiently transfected using a modified calcium phosphate precipitation procedure as described (Kolluri, S. K. et al., Proc Natl Acad Sci USA 102 (7), 2525-2530 (2005); Cao, X., et al., Mol Cell Biol 24(22), 9705-9725 (2004)).

HepG2 cells = assay: Caspase-8 activation by anti-cleaved caspase-8 immunostaining; assay type: cell-based; conditions: TNFα and Sulindac
Method: PC3 cells transfected with CA-AKT or DN-AKT were treated with TNFα and/or Sulindac, and analyzed by immunoblotting (FIG. 6F). Activation of caspase-8 (FIG. 6G) and Bax (FIG. 6H) by Sulindac and TNFα. HepG2 cells transfected with CA-AKT were treated with TNFα and Sulindac, and immunostained with anti-cleaved caspase-8 or Bax/6A7 antibody. […] Sulindac/TNFα-induced PARP cleavage was inhibited by transfection of constitutive-active AKT (CA-AKT) but enhanced by transfection of dominant-negative AKT (DN-AKT) (FIG. 6F). Consistently, induction of apoptosis (FIG. 17B) and activation of caspase-8 (FIG. 6G) and Bax (FIG. 6H) by Sulindac/TNFα combination was inhibited by CA-AKT.

AKT [3] = assay: Basal AKT activation by immunoblotting; assay type: cell-based; conditions: various cancer cell lines incl. SW480 and HCT116, 100 μM, 1 hr
Method: HepG2, SW480, RAW264.7, HCT116, LNCaP, PC3, ZR-75-1, and HaCat cells were starved overnight and treated with Sulindac (100 μM) for 1 hr and analyzed for AKT activation by immunoblotting (FIG. 3A). HepG2 cells were also transfected with RXRα siRNA for 48 hours, treated with Sulindac (100 μM) for 1 hour, and analyzed for AKT activation and RXRα expression by immunoblotting (FIG. 3B).
For immunoblotting, cell lysates were boiled in SDS sample buffer, resolved by SDS-polyacrylamide gel electrophoresis, and transferred to nitrocellulose. After transfer, the membranes were blocked in 5% milk in TBST (10 mM Tris-HCl, pH. 8.0, 150 mM NaCl, 0.05% Tween 20) containing antibody. The membranes were then washed three times with TBST, then incubated for 1 hr at room temperature in 5% milk in TBST containing horseradish peroxide-linked anti-immunoglobulin.

RARβ = biological target: T2, RARβ (Homo sapiens, UniProt P10826); assay: HPLC analysis of sulindac sulfide binding to receptor protein in cells; conditions: HEK293T cells, 100 μM, 3 hr
T2 construct: expressed in transfected cells
T2 sequence (P10826 whole entry, species assumed): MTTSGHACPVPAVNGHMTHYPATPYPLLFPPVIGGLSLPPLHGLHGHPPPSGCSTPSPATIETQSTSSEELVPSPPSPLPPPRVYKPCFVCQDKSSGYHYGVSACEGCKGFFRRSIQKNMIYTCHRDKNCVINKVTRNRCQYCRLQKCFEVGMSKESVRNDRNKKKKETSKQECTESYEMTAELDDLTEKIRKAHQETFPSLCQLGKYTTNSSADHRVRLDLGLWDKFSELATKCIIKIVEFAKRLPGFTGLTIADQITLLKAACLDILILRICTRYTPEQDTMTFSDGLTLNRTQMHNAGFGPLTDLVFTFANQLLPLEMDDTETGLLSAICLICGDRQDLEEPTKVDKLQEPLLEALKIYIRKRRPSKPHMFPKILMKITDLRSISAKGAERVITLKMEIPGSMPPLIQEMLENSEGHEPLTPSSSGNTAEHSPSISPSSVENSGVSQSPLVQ
Method: (§2) Competitive ligand-binding assays (FIG. 1A) and HPLC analysis of Sulindac binding to RXRα, Nur77, or RARβ in HEK293T cells (FIG. 1B) were performed. RXRα LBD protein was incubated with [^3H]9-cis-RA in the presence or absence of Sulindac or unlabeled 9-cis-RA. Bound [^3H]9-cis-RA was quantitated by liquid scintillation counting (FIG. 1A). HEK293T cells stably expressing RXRαfused to a C-terminal TAP tag (Stratagene, La Jolla, Calif.) were treated with or without 100 μM sulindac sulfide for 3 hr. After treatment, cells were purified and analyzed by HPLC for the presence of sulindac sulfide. A standard solution of sulindac sulfide was used to obtain the calibration curve. Characteristic peak spectrum and retention time was used for identification, and peak areas at max used for quantification were calculated (FIGS. 1B and 10).
(§3) Expression vector containing receptor fused to C-terminal TAP fusion (Stratagene, La Jolla, Calif.) was transfected into HEK293 cells using FuGene 6 transfection reagent (Roche, Basel, Switzerland). The cells were maintained in exponential growth in complete medium, DMEM (Mediatech Inc., Herndon, Va.) supplemented with 10% calf serum (SCS, Hyclone Logan, Utah), 2 mM glutamine, penicillin (100 U/ml) and streptomycin (100 μg/ml). At two days post-transfection cells were switched into medium containing […] G418 until 20 days post-transfection, when dishes were scored for drug-resistant colonies. Expression of RXRα fusion protein was determined by immunoblotting. […] A standard solution of sulindac sulfide was used to obtain the calibration curve.

Nur77 = biological target: T3, Nur77 (Homo sapiens, UniProt P22736); assay: as above; conditions: HEK293T cells, 100 μM, 3 hr
T3 construct: expressed in transfected cells
T3 sequence (P22736 whole entry, species assumed): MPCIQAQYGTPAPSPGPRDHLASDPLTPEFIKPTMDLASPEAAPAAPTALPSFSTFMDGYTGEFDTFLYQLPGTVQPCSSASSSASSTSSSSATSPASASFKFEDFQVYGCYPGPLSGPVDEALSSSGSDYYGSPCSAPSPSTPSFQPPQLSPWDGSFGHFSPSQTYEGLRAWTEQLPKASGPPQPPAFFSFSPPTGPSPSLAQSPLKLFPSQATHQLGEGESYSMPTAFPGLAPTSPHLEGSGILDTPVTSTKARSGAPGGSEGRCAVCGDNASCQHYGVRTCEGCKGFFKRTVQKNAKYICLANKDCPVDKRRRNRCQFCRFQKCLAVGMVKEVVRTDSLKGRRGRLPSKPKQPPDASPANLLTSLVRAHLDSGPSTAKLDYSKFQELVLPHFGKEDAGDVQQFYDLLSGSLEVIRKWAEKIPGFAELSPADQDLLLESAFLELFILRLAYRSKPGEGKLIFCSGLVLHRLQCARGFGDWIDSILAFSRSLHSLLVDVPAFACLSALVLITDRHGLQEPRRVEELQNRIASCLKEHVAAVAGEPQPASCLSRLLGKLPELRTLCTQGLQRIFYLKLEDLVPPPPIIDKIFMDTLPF
Method: as §2, §3

RXRα = biological target: T4, RXRα (Homo sapiens, UniProt P19793); assay: as above; conditions: HEK293T cells stably expressing TAP-tagged receptor, 100 μM, 3 hr
T4 construct: expressed in transfected cells
T4 sequence (P19793 whole entry): as the sequence (P19793 whole entry, one chain of several) above
Method: as §2, §3

RXRα/PPARγ heterodimer = biological target: T5, RXRα/PPARγ heterodimer (Homo sapiens, UniProt P19793); assay: DR1 tk-CAT reporter assay in CV-1 cells; assay type: cell-based; conditions: ciglitazone 10^−6 M
T5 construct: expressed in transfected cells; host or cells: CV-1 green monkey kidney cells
T5 sequence (P19793 whole entry): as the sequence (P19793 whole entry, one chain of several) above
T5 sequence (P37231 whole entry partner): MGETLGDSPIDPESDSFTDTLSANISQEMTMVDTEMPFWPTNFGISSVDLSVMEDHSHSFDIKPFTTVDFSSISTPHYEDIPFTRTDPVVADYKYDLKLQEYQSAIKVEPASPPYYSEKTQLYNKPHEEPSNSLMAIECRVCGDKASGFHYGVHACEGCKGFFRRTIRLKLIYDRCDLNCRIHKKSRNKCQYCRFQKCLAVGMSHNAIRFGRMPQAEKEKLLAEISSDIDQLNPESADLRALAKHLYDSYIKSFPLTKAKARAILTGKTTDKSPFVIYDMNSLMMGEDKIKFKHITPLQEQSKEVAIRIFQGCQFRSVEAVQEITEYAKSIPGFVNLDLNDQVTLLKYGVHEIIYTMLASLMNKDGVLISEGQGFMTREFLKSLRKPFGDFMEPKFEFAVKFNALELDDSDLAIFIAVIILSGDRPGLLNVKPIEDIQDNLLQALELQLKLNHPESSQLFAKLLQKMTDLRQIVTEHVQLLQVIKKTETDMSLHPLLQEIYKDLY
Method: Receptor expression vectors and a reporter gene (TREpal2-tk-CAT for RXRα/TRα heterodimers (FIG. 9C), and DR1 tk-CAT for RXRα/PPARγ heterodimer (FIG. 9B)) were transiently transfected into CV-1 cells. Cells were treated with or without ligands (ciglitazone, 10^−6 M; T3, 10^−7 M) in the presence or absence of Sulindac. CAT activity was determined.
as §1

CC1=C(CC(=O)O)c2cc(F)ccc2/C1=C\c1ccc(C(C)C)cc1 [K-80003, (Z)-2-(3-(4-Iso-propylbenzylidene)-6-fluoro-2-methyl-3H-inden-1-yl)acetic acid]
inhibition of RXRα/Δ80 tumor growth, compared with Sulindac (RXRα/Δ80 tumor): much more potent inhibitory effect than Sulindac
binding to RXRα by 19F NMR (RXRα LBD): confirmed
inhibition of ATRA-induced AKT activation, compared with Sulindac (AKT [1]): much more effective than Sulindac

CSc1ccc(/C=C2/C(C)=C(CC(=O)O)c3cc(F)ccc32)cc1 [Sulindac, (Z)-2-(3-(4-(Methylthio)benzylidene)-6-fluoro-2-methyl-3H-inden-1-yl)acetic acid]
RXRα homodimer and heterodimer transactivation (CAT activity) [2]: inhibited RXRα homodimer and heterodimer transactivation
cells showing caspase-8 staining, CA-AKT-transfected (HepG2 cells): 15%
cells showing caspase-8 staining, nontransfected (HepG2 cells): About 80%
inhibition of basal AKT activation (AKT [3]): Significant inhibition
binding to RAR in cells by HPLC (RARβ): not other nuclear receptors such as RAR and Nur77
binding to Nur77 in cells by HPLC (Nur77): not other nuclear receptors such as RAR and Nur77
binding to RXRα in cells by HPLC (RXRα): direct binding
transactivation of RXRα/PPARγ heterodimers (CAT activity) (RXRα/PPARγ heterodimer): inhibited transactivation
